Reference: patent publication US20110172217A1, “RING-FUSED MORPHOLINE DERIVATIVE HAVING PI3K-INHIBITING ACTIVITY” (Shionogi & Co., Ltd., priority 2008, published 2011)

Key:
[1] = biological target: T1, human ether-a-go-go related gene (hERG) channel (Homo sapiens, UniProt Q12809); assay: hERG test, whole-cell patch-clamp, IKr; type: cell-based; settings: 1 μmol/L compound; HEK293 cell expressing hERG
T1 construct: expressed in transfected cells; host or cells: HEK293
Description: For the purpose of risk evaluation of QT interval extension of electrocardiogram, the activity on delayed rectification K^+ current (IKr), which plays an important role in a cardiac ventricle repolarization process, was examined using the HEK293 cell that was made to express human ether-a-go-go related gene (hERG) channel.
Using an automatic patch-clamp system (PatchXpress 7000A, Axon Instruments Inc.), by a whole-cell patch-clamp method, after the cell was maintained at a membrane potential of −80 mV, IKr induced upon applying depolarizing stimulation of +50 mV for 2 seconds and further applying repolarizing stimulation of −50 mV for 2 seconds was recorded. After generated electric current became stable, a test substance dissolved at an intended concentration in extracellular fluid (137 mmol/L NaCl, 4 mmol/L KCl, 1.8 mmol/L CaCl2.2H2O, 1 mmol/L MgCl2.6H2O, 10 mmol/L glucose, 10 mmol/L HEPES (4-(2-hydroxyethyl)-1-piperazineethanesulfonic acid), pH=7.4) was applied to the cell for 10 minutes under room temperature condition. From the obtained IKr, the absolute value of the maximum tail current was measured using analysis software (DataXpress ver. 1, Molecular Devices Corporation) and the value of the electric current in a maintained membrane potential as baseline. Moreover, an inhibition ratio for the maximum tail current prior to the application of the test substance was calculated and then compared with a group of media-application (0.1% dimethylsulfoxide solution) to evaluate influence of the test substance on IKr.

[2] = Solubility test in artificial intestinal juice pH 6.8; type: physicochemical; settings: kinetic from dmso stock, artificial intestinal juice pH 6.8, 1% DMSO, 25° C.
Protocol: The solubility of a compound was determined under a condition in which 1% DMSO was added. 10 mmol/L compound solution was prepared using DMSO, and then 6 μL of the compound solution was added to 594 μL of artificial intestinal juice in pH 6.8 (to 250 mL of 0.2 mol/L potassium dihydrogen phosphate reagent solution was added 118 mL of 0.2 mol/L NaOH reagent solution and water to provide a final volume of 1000 mL). After standing at 25° C. for 16 hours, the mixed solution was filtered with suction. The filtrate was diluted twice with methanol/water (1/1), and then a concentration in the filtration was measured with HPLC or LC/MS/MS by the absolute calibration method.

[3] = biological target: T2, CYP1A2 (Homo sapiens, UniProt P05177); assay: CYP inhibition test, O-de-ethylation of 7-ethoxyresorufin; type: in vitro ADME; settings: pooled human liver microsome; one of 5 kinds
T2 construct: enzyme: pooled human liver microsome 0.2 mg protein/mL; from tissue; host or cells: pooled human liver microsomes
T2 sequence (P05177 1-516): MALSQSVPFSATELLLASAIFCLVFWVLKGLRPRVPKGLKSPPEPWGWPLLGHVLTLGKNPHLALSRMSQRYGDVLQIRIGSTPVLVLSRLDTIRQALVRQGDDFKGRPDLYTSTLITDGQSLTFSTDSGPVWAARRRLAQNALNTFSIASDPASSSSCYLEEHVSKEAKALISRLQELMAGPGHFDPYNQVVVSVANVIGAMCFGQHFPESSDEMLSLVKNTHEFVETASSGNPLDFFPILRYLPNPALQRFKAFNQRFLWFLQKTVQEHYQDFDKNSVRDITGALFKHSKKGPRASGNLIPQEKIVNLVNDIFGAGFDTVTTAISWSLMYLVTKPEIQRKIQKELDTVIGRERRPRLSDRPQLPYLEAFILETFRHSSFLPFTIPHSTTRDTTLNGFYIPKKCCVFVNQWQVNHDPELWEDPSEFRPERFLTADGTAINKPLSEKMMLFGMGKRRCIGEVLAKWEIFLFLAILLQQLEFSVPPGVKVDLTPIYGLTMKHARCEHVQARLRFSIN
Description: (§1) O-de-ethylation of 7-ethoxyresorufin (CYP1A2), methyl-hydroxylation of tolbutamide (CYP2C9), 4′-hydroxylation of mephenyloin (CYP2C19), O-demethylation of dextromethorphan (CYP2D6), and hydroxylation of terfenadine (CYP3A4), which are typical substrate for metabolic reactions of human main CYP5 molecular species (CYP1A2, 2C9, 2C19, 2D6, and 3A4), were adopted as indexes.
(§2) The reaction conditions are as follows: substrate: 0.5 μmol/L of ethoxyresorufin (CYP1A2), 100 μmol/L of tolbutamide (CYP2C9), 50 μmol/L of S-mephenyloin (CYP2C19), […] of dextromethorphan (CYP2D6), and 1 μmol/L of terfenadine (CYP3A4); reaction time; 15 minutes; reaction temperature: 37° C.; enzyme: pooled human liver microsome 0.2 mg protein/mL; test drug concentration: 1, 5, 10, and 20 μmol/L (4 points).
(§3) In a 96-well plate, as a reaction solution, five kinds of substrates, a human liver microsome, and a test drug were added to 50 mmol/L Hepes buffer solution in the aforementioned ratio. A coenzyme NADPH was added to start a metabolic reaction, which is an index. After reacting at 37° C. for 15 minutes, a solution of methanol/acetonitrile (1/1 (v/v)) was added to quench the reaction. After centrifugation at 3000 rpm for 15 minutes, resorufin (CYP1A2 metabolite) in the supernatant was quantitated with a fluorescence multilabel counter, and hydroxylated tolbutamide (CYP2C9 metabolite), 4′-hydroxylated mephenyloin (CYP2C19 metabolite), […], terfenadine in alcohol form (CYP3A4 metabolite) were quantitated with LC/MS/MS.
(§4) The case wherein only DMSO (a solvent which dissolved a drug) was added to a reaction system was defined as a control (100%). When a test drug solution was added, the remaining activity (%) at each concentration was calculated, and then IC50 was calculated with a concentration and an inhibition ratio by an inverse estimation using a logistic model.

[4] = biological target: T3, CYP2C19 (Homo sapiens, UniProt P33261); assay: CYP inhibition test, 4′-hydroxylation of mephenyloin; type: in vitro ADME; settings: pooled human liver microsome; one of 5 kinds
T3 construct: enzyme: pooled human liver microsome 0.2 mg protein/mL; from tissue; host or cells: pooled human liver microsomes
Description: as §1, §2, §3, §4

T1 sequence (Q12809 whole entry): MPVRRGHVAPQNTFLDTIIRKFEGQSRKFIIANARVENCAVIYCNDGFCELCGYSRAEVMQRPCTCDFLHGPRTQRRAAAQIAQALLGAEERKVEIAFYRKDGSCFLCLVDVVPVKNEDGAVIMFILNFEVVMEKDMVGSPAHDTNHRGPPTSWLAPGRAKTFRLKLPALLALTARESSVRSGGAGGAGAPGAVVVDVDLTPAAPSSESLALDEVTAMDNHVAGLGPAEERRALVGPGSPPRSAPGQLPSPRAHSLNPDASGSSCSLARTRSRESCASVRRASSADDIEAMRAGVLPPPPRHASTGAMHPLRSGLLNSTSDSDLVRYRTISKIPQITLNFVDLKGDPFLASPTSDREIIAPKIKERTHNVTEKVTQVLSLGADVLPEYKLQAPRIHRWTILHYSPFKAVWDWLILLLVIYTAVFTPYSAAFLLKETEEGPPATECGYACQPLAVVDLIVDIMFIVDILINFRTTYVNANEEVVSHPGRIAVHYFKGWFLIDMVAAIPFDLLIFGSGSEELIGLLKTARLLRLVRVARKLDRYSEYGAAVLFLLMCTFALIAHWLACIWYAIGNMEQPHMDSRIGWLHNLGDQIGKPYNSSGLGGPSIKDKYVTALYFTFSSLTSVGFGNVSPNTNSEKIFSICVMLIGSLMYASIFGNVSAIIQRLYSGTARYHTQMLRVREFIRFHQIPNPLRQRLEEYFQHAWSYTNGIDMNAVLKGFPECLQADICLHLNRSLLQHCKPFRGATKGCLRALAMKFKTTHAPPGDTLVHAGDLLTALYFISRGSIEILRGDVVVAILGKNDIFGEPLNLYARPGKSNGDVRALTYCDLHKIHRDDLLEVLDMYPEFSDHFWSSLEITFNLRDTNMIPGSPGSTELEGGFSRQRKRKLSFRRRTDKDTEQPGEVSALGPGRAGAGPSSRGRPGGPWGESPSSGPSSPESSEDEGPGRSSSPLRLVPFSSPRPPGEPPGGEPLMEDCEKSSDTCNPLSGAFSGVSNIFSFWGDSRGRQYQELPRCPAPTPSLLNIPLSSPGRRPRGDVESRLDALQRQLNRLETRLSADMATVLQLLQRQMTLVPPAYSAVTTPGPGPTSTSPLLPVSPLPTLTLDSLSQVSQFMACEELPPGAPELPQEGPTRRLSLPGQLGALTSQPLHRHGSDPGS
T3 sequence (P33261 whole entry): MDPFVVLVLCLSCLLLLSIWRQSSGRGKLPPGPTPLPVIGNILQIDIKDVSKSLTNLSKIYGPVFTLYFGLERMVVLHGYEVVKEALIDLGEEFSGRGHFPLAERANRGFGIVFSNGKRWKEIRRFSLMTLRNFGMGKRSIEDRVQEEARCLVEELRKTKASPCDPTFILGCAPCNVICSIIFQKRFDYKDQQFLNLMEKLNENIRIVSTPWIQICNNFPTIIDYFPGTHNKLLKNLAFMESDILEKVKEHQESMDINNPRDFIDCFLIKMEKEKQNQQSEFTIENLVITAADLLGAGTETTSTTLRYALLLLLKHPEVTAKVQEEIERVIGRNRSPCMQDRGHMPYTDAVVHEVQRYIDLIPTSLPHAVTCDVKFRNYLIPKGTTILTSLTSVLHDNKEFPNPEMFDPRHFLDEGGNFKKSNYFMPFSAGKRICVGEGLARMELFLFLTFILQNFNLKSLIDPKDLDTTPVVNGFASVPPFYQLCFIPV

For `O=C(O)c1ccccc1Nc1ccc2c(n1)N(C(=O)Nc1ccccc1)CCO2` [Compound I-145], the “hERG inhibition ratio for the maximum tail current (IKr)” value [1] was 15%.

With `O=C(O)COc1cccc(Nc2ccc3c(n2)N(C(=O)Nc2ccccc2)CCO3)c1` [Compound I-240] the solubility at 16 h [2] was over 50 µM, the IC50 [3] was over 20 µM and the IC50 [4] was over 20 µM.
